Measurements published in US20200129476A1, “PARP Inhibitor in Combination with a Glucocorticoid and/or Ascorbic Acid and/or a Protein Growth Factor for the Treatment of Impaired Wound Healing” (AKRIBES BIOMEDICAL GMBH, priority 2017, published 2020).
Entries after “also recorded” stand apart in the source; their conditions may differ.

Key:
[1] = test system: primary human dermal fibroblasts (HDF); experiment: Primary human dermal fibroblast (HDF) proliferation assay (2D), with or without wound exudate; type: cell-based; details: for HDF proliferation, PARP inhibitor alone: talazoparib 1 μM
Procedure: Primary human dermal fibroblasts (HDF) were purchased from CELLnTEC, Bern. They were routinely grown in Dulbecco's modified Eagle's medium (DMEM) containing 10% FCS, 2 mM glutamine, and 100 U/ml penicillin/100 μg/ml streptomycin. Media, antibiotics, and glutamine were bought from Lonza. The cells were used at passage 5-15. Cells were trypsinized and seeded at 5000 cells/well in 200 μl into the inner wells of 96-well plates. The outer wells were loaded with sterile water. The cells were allowed to adhere overnight and then incubated for 72 hours at 37° C. under the following conditions: graded compound concentrations or 20 ng/ml PDGF-BB (Tonbo Biosciences) in the absence or presence of different dilutions of sterile-filtered WE in medium. For control samples, 200p1 medium was added instead of specific stimuli. Alternatively, the cells were seeded into 384-well plates at 2500 cells/well directly together with test compounds or growth factors and WE or medium in a total volume of […].
At the end of the 72-hour incubation period, supernatants were removed for the determination of IL-1ß, and the cells were fixed with 4% paraformaldehyde (Morphisto) for 15 minutes at room temperature and washed 3 times with PBS. A control plate was fixed after the overnight adherence of the cells (day 1) to determine the starting cell number.
Total cellular protein was determined as a measure of cell number by staining the fixed cells with sulforhodamine B (SRB, Sigma). A 0.4% SRB solution in 1% acetic acid was added to the wells for 30 minutes. The wells were then washed with 1 acetic acid until the wash solution remained colorless. After drying, the dye was eluted with 10 mM Tris.HCl, pH8.5, and absorbance was measured either at 550 or 492 nm for lower and higher cell densities, respectively. The average absorbance of the sample representing the day 1 starting cell number (for 96-well plates) was subtracted from the absorbance values of the WE-treated cells.
All experiments were carried out in triplicate for each sample and concentration, and means±standard deviation (SD) were used for the evaluation of the experiment. Results are expressed as percentage of control values for unstimulated cells.
Low molecular weight compounds (see list in Table 1) were dissolved in DMSO (Bioreagent for cell culture, Sigma) at 10 mM or 100 mM and diluted at least 1:1000 in medium for cellular assays (final DMSO concentration ≤0.1%).
Cells were incubated with compounds for 72 hours in proliferation assays and up to 8 days for FDM assay (refreshed after 4 days). When compounds were tested for their effect on WE stimulation, the incubation of cells with compounds was started and ended simultaneously with WE-incubation.

[2] = test system: macrophages; experiment: Fibroblast-macrophage coculture with wound exudate: live cells in FACS CD45-gate; type: cell-based, human; details: WE #78
Procedure: CD14^+ monocytes, isolated from PBMC of healthy donors by magnetic bead separation were incubated either alone or in the presence of primary human dermal fibroblasts (CelINTec) or fibroblast-derived matrices (FDM). FDM had been generated from primary human dermal fibroblasts by a 3-week incubation with the growth supplements vitamin C or insulin and EGF (vitamin C: 2-phospho-L-ascorbic acid trisodium salt, 100 μg/ml; human EGF, 5 ng/ml; human insulin, 5 μg/ml). Alternatively, fibroblast monolayer cultures can be used as well. […]
Supernatants were harvested and frozen for cytokine determination by ELISA, and cells were harvested and subjected to FACS analysis, gating on the monocyte population. Geometric means or mean fluorescence intensities (MFI) were used to quantify surface marker expression.
Cells were harvested and resuspended in FACS buffer (PBS containing 2% FCS). […] Co-staining with CD45 eFluor (#506 69-0459-42) was used to distinguish macrophages from primary human fibroblasts when analyzed from co-cultures. After washing cells with FACS buffer, they were fixed with 1% paraformaldehyde in PBS and stored at 4° C. in the dark until data were acquired on a Gallios flow cytometer from Beckman Coulter and analyzed with the Kaluza analysis software 1.3.

C[C@]1(c2nc3c(C(N)=O)cccc3[nH]2)CCCN1 [veliparib, 2-((2R)-2-methylpyrrolidin-2-yl)-1H-benzimidazole-4-carboxamide]
cell proliferation under wound exudate-induced inhibition ([1]; FIG. 22, WE #43 and #78 used with veliparib): enhanced cell proliferation
HDF proliferation, PARP inhibitor plus PDGF ([1]; PARP inhibitor dose series + PDGF 20 ng/ml, WE #78 (FIG. 18)): even further enhanced by the addition of PDGF
effect on fibroblast proliferation compared across patients ([1]; WE from patients #49, #43, #78, #27): most prominent in the two patients with diabetes
reproducibility of effect on fibroblast proliferation ([1]; WE samples #77 and #78 of one patient (day 1 and day 8)): reproducible in different samples of the same patient
fibroblast (HDF) proliferation ([1]; presence of WE #43): strongly beneficial effects
fibroblast (HDF) proliferation ([1]; presence of WE #78 (diabetic patient)): completely reversed inhibition of wound exudate (WE)-induced fibroblast proliferation; also recorded: dose-dependent increase of HDF proliferation
fibroblast (HDF) proliferation ([1]; presence of WE #78 (diabetic patient), listed as Veliparib): completely reversed inhibition of wound exudate (WE)-induced fibroblast proliferation; also recorded: strongly beneficial effects
fibroblast (HDF) proliferation ([1]; presence of wound exudate (WE) of patients, several or unspecified WE): could be confirmed in a number of further wound exudate samples from other patients
HDF proliferation, PARP inhibitor plus PDGF ([1]; veliparib 10 μM, talazoparib 1 μM + PDGF 20 ng/ml, WE #78 (FIG. 17B)): additively or synergistically enhanced by PDGF
HDF proliferation, PARP inhibitor alone ([1]; veliparib 10 μM, WE #78 (FIG. 17B)): induce proliferation
HDF proliferation, PARP inhibitor alone ([1]; veliparib 10 μM, absence of WE (FIG. 17A)): no or an inhibitory effect on fibroblasts on their own
HDF proliferation, PARP inhibitor alone ([1]; veliparib 10 μM, absence of WE (FIG. 17A), listed as Veliparib): no or even an inhibitory effect on fibroblasts on their own
percentage of live cells in the FACS CD45-gate, veliparib with dexamethasone ([2]; veliparib 10 μM + dexamethasone 10 nM): further increased
percentage of live cells in the FACS CD45-gate ([2]; veliparib 10 μM or dexamethasone 10 nM alone): increased
